Experiment: xn = mol fraction of the nth substance listed
Details: 101 kPa

CCCC[n+]1ccn(C)c1.F[B-](F)(F)F + CCCCCC[n+]1ccn(C)c1.F[B-](F)(F)F
x1 = 1
Details	viscosity [mPa·s]
298.15 K	106.4
299.15 K	101
301.15 K	91.1
302.15 K	86.7
303.15 K	82.6
304.15 K	78.9
307.15 K	68.5
308.15 K	65.4

CC[n+]1ccn(C)c1.F[B-](F)(F)F + CCCCCC[n+]1ccn(C)c1.F[B-](F)(F)F
x1 = 1
Details	viscosity [mPa·s]
298.15 K	35.8
301.15 K	32.15
302.15 K	31.06
303.15 K	30.06
304.15 K	29.01
305.15 K	28.13
307.15 K	26.38

CCCC[n+]1ccn(C)c1.F[P-](F)(F)(F)(F)F + CCCC[n+]1ccn(C)c1.F[B-](F)(F)F
viscosity [mPa·s]
Details	298.15 K	299.15 K	301.15 K	302.15 K	303.15 K	304.15 K	305.15 K	307.15 K	308.15 K
x1 = 0.0568	106.8	101.3	–	–	–	79	75.3	68.5	65.39
x1 = 0.1034	–	–	–	94.4	89.7	85.5	81.4	74.3	70.9
x1 = 0.2095	128.1	–	109.5	103.9	98.8	94.2	89.5	81.3	–
x1 = 0.3012	137.4	130.1	117	111.1	105.4	100.2	95.3	86.4	82.4
x1 = 0.3825	146.7	139.9	125.6	–	113	107.1	102.1	–	–
x1 = 0.4647	157.7	145.6	131.8	–	118.1	111.8	106.9	96.4	91.9
x1 = 0.4999	169.3	159.7	–	135.8	128.2	–	–	103.9	98.4
x1 = 0.5385	168.5	159.6	142.9	134.8	–	121.6	114.9	104.1	–
x1 = 0.5974	182.5	172.4	156.7	145.4	137.6	130.5	123.9	111.8	106
x1 = 0.6928	201.4	190.1	169.9	160.9	155.3	144.1	–	123.3	116.9
x1 = 0.833	–	214	190.2	179.5	169.7	160.5	154.5	–	129.2
x1 = 0.8877	–	224	199	187.7	177.3	167.5	159	142.2	134.8
x1 = 0.945	249	234	208	196.2	185.4	175.3	–	–	142.5
x1 = 1	279	–	–	218	206	194.8	183.8	164.5	–

CCCC[n+]1ccn(C)c1.F[B-](F)(F)F + CCCC[n+]1ccn(C)c1.F[P-](F)(F)(F)(F)F
x2 = 0
Details	viscosity [mPa·s]
298.15 K	107.2
302.15 K	87.5
304.15 K	79.6
305.15 K	75.9
307.15 K	69.1
308.15 K	66.1

CCCCCC[n+]1ccn(C)c1.F[B-](F)(F)F + CC[n+]1ccn(C)c1.F[B-](F)(F)F
viscosity [mPa·s]
Details	298.15 K	299.15 K	301.15 K	302.15 K	303.15 K	304.15 K	305.15 K	307.15 K	308.15 K
x2 = 0	–	–	177.2	–	160.9	148.4	141.2	127.5	120.7
x2 = 0.0545	184.1	173.9	–	147.1	139.3	132.4	125.1	113.1	107.3
x2 = 0.1196	171.7	–	145.5	–	130.2	123.7	117.7	106	100.8
x2 = 0.1803	158.1	–	–	125.9	–	113.4	108	97.5	–
x2 = 0.3145	128.3	–	109.7	104.1	99.1	94.2	–	81.4	–
x2 = 0.4061	–	106	95.9	91.3	87	82.8	78.9	71.9	68.8
x2 = 0.446	104.5	99.3	89.9	85.6	81.6	77.7	74.3	67.8	64.8
x2 = 0.4938	96	–	82.7	78.6	75.1	71.7	–	62.6	–
x2 = 0.5526	86.7	82.5	75	71.4	–	65.3	62.36	57.17	54.84
x2 = 0.6006	78.3	–	68.1	64.9	–	59.61	–	52.51	–
x2 = 0.7059	64.3	61.64	56.52	54.22	–	–	47.93	44.34	42.66
x2 = 0.793	–	–	47.42	45.56	–	42.09	–	–	–
x2 = 0.8516	48.1	46.22	–	–	39.58	38.13	36.71	34.2	33
x2 = 0.9022	43.3	–	–	–	35.77	–	–	–	–

CCCCCC[n+]1ccn(C)c1.F[B-](F)(F)F + CCCC[n+]1ccn(C)c1.F[B-](F)(F)F
viscosity [mPa·s]
Details	298.15 K	299.15 K	301.15 K	302.15 K	303.15 K	304.15 K	305.15 K	307.15 K	308.15 K
x2 = 0	209	197.3	175.8	165.9	157	148.6	140.7	126.7	120
x2 = 0.054	200.2	188.7	168.3	160.4	147.5	142.5	135.7	–	117.4
x2 = 0.103	–	–	164.5	156.8	147.1	–	132	119	–
x2 = 0.2076	172.4	161.3	145	137.3	130.2	122.8	117.3	106.1	101
x2 = 0.2995	167.3	161.3	141.6	134.2	127.2	120.6	114.6	–	98.5
x2 = 0.3602	165.7	156.7	140.4	–	–	119.8	–	102.6	–
x2 = 0.4383	158.7	149	133.4	126.3	119.7	113.7	–	97.4	–
x2 = 0.5047	149.8	144	129.1	122.4	116.1	–	104.7	94.6	90
x2 = 0.555	144	135.9	122.2	–	–	104.4	99.3	90	85.9
x2 = 0.598	142.4	134.7	121.1	114.9	108.6	103.6	–	89.3	85.2
x2 = 0.809	122.3	–	–	99.2	–	89.9	–	77.7	74.5
x2 = 0.8917	–	109.5	–	–	–	85	81	73.6	70.3

CCCC[n+]1ccn(C)c1.COS(=O)(=O)[O-] + CCCC[n+]1ccn(C)c1.F[B-](F)(F)F
viscosity [mPa·s]
Details	298.15 K	299.15 K	301.15 K	302.15 K	303.15 K	304.15 K	305.15 K	307.15 K	308.15 K
x2 = 0	215	–	181.2	–	162.3	156.8	145.7	131.2	124.5
x2 = 0.1209	192.5	–	–	153.9	145.8	138.2	–	118.2	–
x2 = 0.2142	188.2	177.6	–	147	142.2	134.8	–	115.2	109.5
x2 = 0.3057	180.2	170.3	152.3	–	136.7	–	123.2	111.2	105.9
x2 = 0.406	168.1	160.7	142.4	135	–	121.4	115	104	–
x2 = 0.4358	–	151.3	–	129.3	122.4	116	110	–	94.5
x2 = 0.5118	–	147.4	132.1	125.1	–	112.7	107	96.8	92
x2 = 0.5412	149.5	143.6	128.6	–	115.8	–	104	93.9	89.6
x2 = 0.6026	–	138.4	124.1	–	111.4	105.7	–	–	86.8
x2 = 0.648	141.6	133.8	120	–	108	102.4	97.1	87.8	83.6
x2 = 0.6934	137.5	130	–	110.8	105.1	–	95.1	86.2	82
x2 = 0.7813	128.4	121.5	–	103.9	98.7	93.8	89.3	81.2	77.4
x2 = 0.9005	117.6	111.5	100.7	96	90.7	86.9	–	75.4	72.6
x2 = 0.9447	–	105.3	95.1	90.7	86.2	82	–	71.1	–
